Assay results reported in ChEMBL document CHEMBL6083212, “The synthesis and bioactivities of ROCK2 inhibitors with 1,2-dithiolan-3-yl motif” (RSC Med Chem, 2024).
Active and inactive are the calls of the source. No cut-off for these calls is given here.

Key:
BV-2 [1] = experiment: Antiinflammatory activity in LPS-induced mouse BV-2 cells assessed as inhibition of IL-6 production at […] incubated for 24 hrs by ELISA analysis; format: functional; design: dose or concentration left out as unconfirmed
[2] = Antioxidant activity assessed as DPPH radical scavenging activity at 1 mM incubated for 30 mins by absorbance based analysis; format: functional
BV-2 [3] = experiment: Antiinflammatory activity in LPS-induced mouse BV-2 cells assessed as inhibition of TNF-alpha production at […] incubated for 24 hrs by ELISA analysis; format: functional; design: dose or concentration left out as unconfirmed
[4] = Cytotoxicity against mouse BV-2 cells by MTT assay; format: toxicity, cell-based; conditions: read-out: TC50 (the source's name)
[5] = Drug metabolism in rat plasma assessed as 5-(1,1-dioxodithiolan-3-yl)pentyl 4-(5-isoquinolylsulfonyl)-1,4-diazepane-1-carboxylate metabolite formation at 10 mg/kg, iv; format: ADME, organism-based; conditions: in vivo
[6] = Acute toxicity in C57BL/6 mouse assessed as change in body weight at 50 mg/kg, iv measured for 14 days; format: organism-based; conditions: in vivo, 336 h, time 14 day
[7] = Drug metabolism in rat plasma assessed as 5-(1,2-dioxodithiolan-3-yl)pentyl 4-(5-isoquinolylsulfonyl)-1,4-diazepane-1-carboxylate metabolite formation at 10 mg/kg, iv; format: ADME, organism-based; conditions: in vivo
[8] = Apparent clearance during terminal phase in Sprague-Dawley rat at 10 mg/kg, iv measured upto 24 hrs by LC-MS analysis; format: ADME, organism-based; conditions: in vivo
[9] = Acute toxicity in C57BL/6 mouse assessed as change in organ index at 50 mg/kg, iv measured for 14 days; format: organism-based; conditions: in vivo, 336 h, time 14 day
[10] = Apparent volume of distribution during terminal phase in Sprague-Dawley rat at 10 mg/kg, iv measured upto 24 hrs by LC-MS analysis; format: ADME, organism-based; conditions: in vivo
[11] = AUC (0 to infinity) in Sprague-Dawley rat at 10 mg/kg, iv measured upto 24 hrs by LC-MS analysis; format: ADME, organism-based; conditions: in vivo
[12] = AUC (0 to t) in Sprague-Dawley rat at 10 mg/kg, iv measured upto 24 hrs by LC-MS analysis; format: ADME, organism-based; conditions: in vivo
[13] = Acute toxicity in C57BL/6 mouse assessed as change in mental state at 50 mg/kg, iv measured for 14 days; format: organism-based; conditions: in vivo, 336 h, time 14 day
[14] = Tmax in Sprague-Dawley rat at 10 mg/kg, iv measured upto 24 hrs by LC-MS analysis; format: ADME, organism-based; conditions: in vivo
[15] = Cmax in Sprague-Dawley rat at 10 mg/kg, iv measured upto 24 hrs by LC-MS analysis; format: ADME, organism-based; conditions: in vivo
[16] = Drug metabolism in rat plasma assessed as 5-(1-oxodithiolan-3-yl)pentyl 4-(5-isoquinolylsulfonyl)-1,4-diazepane-1-carboxylate metabolite formation at 10 mg/kg, iv; format: ADME, organism-based; conditions: in vivo
[17] = AUC (0 to t) in Sprague-Dawley rat at 10 mg/kg, ip measured upto 24 hrs by LC-MS analysis; format: ADME, organism-based; conditions: in vivo
[18] = Tmax in Sprague-Dawley rat at 10 mg/kg, ip measured upto 24 hrs by LC-MS analysis; format: ADME, organism-based; conditions: in vivo
[19] = Apparent clearance during terminal phase in Sprague-Dawley rat at 10 mg/kg, ip measured upto 24 hrs by LC-MS analysis; format: ADME, organism-based; conditions: in vivo, read-out: CLz/F (converted)
[20] = Cmax in Sprague-Dawley rat at 10 mg/kg, ip measured upto 24 hrs by LC-MS analysis; format: ADME, organism-based; conditions: in vivo
[21] = Oral bioavailability in Sprague-Dawley rat at 10 mg/kg measured upto 24 hrs by LC-MS analysis; format: ADME, organism-based; conditions: in vivo
[22] = Apparent volume of distribution during terminal phase in Sprague-Dawley rat at 10 mg/kg, ip measured upto 24 hrs by LC-MS analysis; format: ADME, organism-based; conditions: in vivo, read-out: Vz/F
[23] = AUC (0 to infinity) in Sprague-Dawley rat at 10 mg/kg, ip measured upto 24 hrs by LC-MS analysis; format: ADME, organism-based; conditions: in vivo
Mus musculus = experiment: Anti-inflammatory activity in CFA-induced acute arthritis C57BL/6 mouse model assessed as effect on foot swelling at 5 to 10 mg/kg, iv measured for 12 hrs; format: functional, organism-based; conditions: dose 5-10 mg/kg

Compound	inhibition (BV-2 [1])	Activity [2] [%]	inhibition (BV-2 [3])	CC50 [4] [µM]	other results
O=S(=O)(c1cccc2cnccc12)N1CCCNCC1 [FASUDIL]	82.6%	99	30.1%		
COc1cc(/C=C/C(=O)N2CCCN(S(=O)(=O)c3cccc4cnccc34)CC2)cc(OC)c1OC(C)=O	35%	22.7	45.9%	> 100	
COc1cc(/C=C/C(=O)N2CCCN(S(=O)(=O)c3cccc4cnccc34)CC2)ccc1OCCCCCCO[N+](=O)[O-]	56.1%	24.3	53.8%	> 100	
CC(=O)Oc1ccc(/C=C/C(=O)N2CCCN(S(=O)(=O)c3cccc4cnccc34)CC2)cc1OC(C)=O	22.6%	82.4	17.8%	44.2	
COc1cc(/C=C/C(=O)OCCCCCC2CCSS2)ccc1OC(C)=O (stereo unspecified)	inactive	26.1	inactive	> 100	
O=S(=O)(c1cccc2cnccc12)N1CCN(C(c2ccc(F)cc2)c2ccc(F)cc2)CC1	inactive	23.4	inactive	> 20	
CC1(C)C=Cc2cc(C(=O)N3CCCN(S(=O)(=O)c4cccc5cnccc45)CC3)ccc2O1	inactive	48.7	31.5%	> 100	
O=S(=O)(c1cccc2cnccc12)N1CCCN(C(c2ccccc2)c2ccccc2)CC1	inactive	22.4	inactive	> 100	
COc1cc(/C=C/C(=O)N2CCCN(S(=O)(=O)c3cccc4cnccc34)CC2)ccc1OC(C)=O	inactive	28.7	inactive	> 100	
O=S(=O)(c1cccc2cnccc12)N1CCN(C(c2ccccc2)c2ccccc2)CC1	inactive	26.5	25.8%	> 20	
CC1(C)C=Cc2cc(/C=C/C(=O)N3CCCN(S(=O)(=O)c4cccc5cnccc45)CC3)ccc2O1	inactive	33.8	38.5%	64.4	
O=C(CCCCC1CCSS1)N1CCN(C(c2ccccc2)c2ccccc2)CC1 (stereo unspecified)	49.6%	50.5	41%	63	
O=S(=O)(c1cccc2cnccc12)N1CCCN(C(c2ccc(F)cc2)c2ccc(F)cc2)CC1	inactive	22.7	inactive	62	
CC(=O)Oc1ccccc1C(=O)OCCCCCC1CCSS1 (stereo unspecified)	27.8%	28.5	51.3%	9.19	
O=C(OCCCCCC1CCSS1)N1CCCN(S(=O)(=O)c2cccc3cnccc23)CC1 (stereo unspecified)	86.7%	91.4	53.9%	> 100	Drug metabolism [5]: metabolite_detected; Activity [6]: Non-toxic; Drug metabolism [7]: metabolite_detected; CLz/F [8]: 93.3 mL/min/kg; Activity [9]: Non-toxic; Vz/F [10]: 1.3 L/kg; AUC(0-inf) [11]: 1950 ng·h/mL; AUC(0-t) at 24 h [12]: 1940 ng·h/mL; Activity [13]: Non-toxic; Tmax [14]: 12 min; Cmax [15]: 12200 ng/mL; Drug metabolism [16]: metabolite_detected
COc1cc(/C=C/C(=O)N2CCCN(S(=O)(=O)c3cccc4c(O)nccc34)CC2)ccc1OC(C)=O	25.9%	48.7	22.6%	> 20	
COc1cc(/C=C/C(=O)N2CCCN(S(=O)(=O)c3cccc4cnccc34)CC2)cc(OC)c1O	0.07%	90.9	34.5%	> 100	
COc1cc(/C=C/C(=O)N2CCCN(S(=O)(=O)c3cccc4cnccc34)CC2)ccc1OCCO[N+](=O)[O-]	2.78%	23.9	45.8%	> 100	
CC(=O)Oc1ccc(/C=C/C(=O)N2CCCN(S(=O)(=O)c3cccc4cnccc34)CC2)cc1	26.3%	29.2	49.5%	> 100	
COc1cc(/C=C/C(=O)N2CCCN(S(=O)(=O)c3cccc4cnccc34)CC2)ccc1OCCCO[N+](=O)[O-]	6.42%	19.1	30.9%	> 100	
O=C(CCCCC1CCSS1)N1CCCN(S(=O)(=O)c2cccc3c(O)nccc23)CC1 (stereo unspecified)	inactive	24.4	inactive	> 100	
CC1(C)C=Cc2cc(/C=C/C(=O)N3CCN(S(=O)(=O)c4cccc5cnccc45)CC3)ccc2O1	inactive	25.4	39.2%	> 100	
O=C(CCCCC1CCSS1)N1CCN(C(c2ccc(F)cc2)c2ccc(F)cc2)CC1 (stereo unspecified)	53.8%	92	70.7%	> 100	AUC(0-t) at 24 h [17]: 1630 ng·h/mL; Tmax [18]: 4.98 min; CL/F [19]: 102 mL/min/kg; Activity [6]: Non-toxic; Cmax [20]: 9950 ng/mL; CLz/F [8]: 48.3 mL/min/kg; Activity [9]: Non-toxic; Vz/F [10]: 0.7 L/kg; AUC(0-inf) [11]: 3360 ng·h/mL; AUC(0-t) at 24 h [12]: 3350 ng·h/mL; bioavailability [21]: 48.5%; Activity [13]: Non-toxic; Tmax [14]: 4.98 min; Cmax [15]: 20000 ng/mL; Vd/F [22]: 6.1 L/kg; AUC(0-inf) [23]: 1660 ng·h/mL; Activity (Mus musculus): Active
COc1cc(/C=C/C(=O)N2CCCN(S(=O)(=O)c3cccc4cnccc34)CC2)ccc1OCCCCO[N+](=O)[O-]	36.3%	20.7	57.5%	> 100	
COc1cc(/C=C/C(=O)N2CCCN(S(=O)(=O)c3cccc4cnccc34)CC2)ccc1O	inactive	93	0.08%	> 100	
COc1cc(/C=C/C(=O)N2CCCN(S(=O)(=O)c3cccc4cnccc34)CC2)ccc1OCCCCCO[N+](=O)[O-]	48.5%	25.3	34.9%	> 100	
O=C(CCCCC1CCSS1)N1CCN(S(=O)(=O)c2cccc3cnccc23)CC1 (stereo unspecified)	inactive	51.2	9.02%	> 100	
